In patent US6787569B1, “Therapeutic guanidines” (Cambridge NeuroScience, Inc., priority 1994, dated 2004):
Counter-ions that a name gives are not always drawn. Like-named read-outs stand apart in the source and are kept apart here.

Key:
[1] = tested on: veratridine-induced 3H-glutamate release from brain nerve terminals (voltage-activated presynaptic Na channels); assay: Inhibition of veratridine-induced 3H-glutamate release, rapid superfusion of synaptosomes; assay type: biochemical, rat; conditions: for % Inhibition of ^3H-Glu Rel @ 1 μM (*veratridine-induced glutamate release assay): 1 μM compound
[2] = tested on: L-type Ca channels; assay: Inhibition of 45Ca uptake through L-type (dihydropyridine-sensitive) calcium channels in GH4C1 pituitary cells; assay type: cell-based
Method: Compounds of the invention representative of each of the major classes of agents claimed herein were tested to determine their ability to inhibit voltage-activated, dihydropyridine-sensitive L-type calcium channels in clonal GH4C1 pituitary cells. Said voltage-activated L-type calcium channels are found in cardiac muscle, vascular smooth muscle, and the cardiac Purkije cell conduction system. They are the sites of action of the major classes of Ca antagonists employed to treat hypertension, angina, cardiac arrhythmias, and related disorders. L-type Ca channels are also the sites of action of certain neuroprotective dihydropyridine Ca antagonists such as nimodipine.
The uptake of ^45Ca into GH4C1 cells was performed by an adaptation of the method of Tan, K. et al. (J. Biol. Chem., 259:418-426 (1984)). The principle of the method involves activating ion permeation through synaptosomal calcium channels by high K^+-induced depolarization of the synaptosomal preparation. The uptake of ^45Ca measured by this procedure is mediated by presynaptic L-type calcium channels, and is sensitive to dihydropyridine, phenylalkylamine, and benzothiazipine Ca antagonists at therapeutically relevant concentrations [Tashjian et al., ibid.]. The adaptation of the aforementioned method involves growing GH4C1 cells in 96-well culture plates, and is designed to provide a rapid and quantitative determination of the potency of various compounds in inhibiting ^45Ca uptake through L-type Ca channels.
GH4 cells, stored in liquid nitrogen, are suspended in 15 ml growth medium (Ham's F-10 medium plus 15% heat-inactivated horse serum and 2.5% heat-inactivated fetal bovine serum). The cells are centrifuged, resuspended, and then added to T-75 flasks containing 12-15 mls Growth Medium, and incubated at 37° C. for approximately 1 week. The cells are them removed from the T75 flask after dissociation from the walls of the flask by treatment for 5 minutes at 37° C. with 1 mg/ml Viocase. The Viocase is decanted, and the cells are resuspended in ˜200 ml of Growth Medium. The cells are then aliquoted (200 μl/well) into each well of several 96 well plates. The cells are then grown under the aforementioned conditions for 3-4 weeks, with replacement of Growth Medium occurring twice per week. Cells are fed growth medium 24 hours before they are employed for ^45Ca uptake determinations.
At the time of the assay, media Is aspirated from each 96-well plate using a manifold designed to allow 50 μL of liquid to remain in each well. Each plate is washed and aspirated twice with a low K^+ buffer solution “LKHBBS” (in mM 5 KCl, 145 NaCl, 10 Hepes, 1 MgCl2, […], 10 glucose, pH 7.4), 200 μl/well. Each plate is incubated for 10 minutes at 37° C., and aspirated as above. To each well of each plate, 50 μl of HBBS containing the drug to be tested in twice the final concentration is added. The plates are incubated for 10 minutes at room temperature. To each well of each plate, 50 μl of either of two solutions are added:
(a) LKHBBS containing 1 μCi of carrier-free ^45Ca, or
(b) HKHBBS (a high K^+ buffer containing 150 mM KCl and no NaCl, but otherwise identical to LKHBBS).
Each plate is then incubated for 5 minutes at room temperature, aspirated as above, and quenched with 200 μl/well of Quench Buffer (Ca-free LKHBBS containing 10 mM Tris-EGTA). Each plate is aspirated and rinsed with Quench Buffer a second time, then carefully aspirated to dryness. To each well of each plate 100 μl of High Safe II scintillation fluid is added. The plates are sealed, shaken, and subjected to scintillation spectrophotometry on a Microbeta 96-well Scintillation Counter (Wallac, Gaithersburg, Md., USA).
Net depolarization-induced ^45Ca uptake was determined for each concentration of each compound tested, as the difference between ^45Ca uptake in HKBBS and LK buffers. Results were plotted as % inhibition of depolarization-induced ^45Ca uptake vs. [compound] for each compound tested.

[3] = tested on: depolarization-induced 3H-glutamate release from brain nerve terminals; assay: Inhibition of 3H-glutamate release, high [K+] depolarization, rapid superfusion of synaptosomes; assay type: biochemical; conditions: rat brain synaptosomes; for % Inhibition of ^3H-Glu Rel @ 3 μM: 3 μM compound; for % Inhibition of ^3H-Glu Rel @ 1 μM: 1 μM compound
[4] = tested on: presynaptic Ca channels; assay: Inhibition of 45Ca uptake through presynaptic Ca channels in brain synaptosomes; assay type: biochemical, mammalian; conditions: high K+ depolarization-induced 45Ca uptake, read-out: IC50, block of ^45Ca uptake
Method: Compounds of the invention were tested to determine their ability to inhibit voltage-activated calcium channels in nerve terminals of mammalian brain. Said voltage-activated calcium channels directly control neurotransmitter release (see Nachsen, D. A. et al., J. Gen Physiol., 79:1065-1087 (1982)). The uptake of ^45Ca into brain synaptosomes was performed by an adaptation of the method of Nachsen and Blaustein (J. Physiol., 361:251-258 (1985)), as previously described [Goldin et al., PCT/US92/01050]. The principle of the method involves opening ion permeation through synaptosomal calcium channels by high K^+-induced depolarization of the synaptosomal preparation. The rapid component of ^45Ca uptake measured by this procedure is mediated by presynaptic calcium channels.
Briefly, synaptosomes are prepared by the method of Hajos (Brain Res., 93:485-489 (1975)). Freshly prepared synaptosomes (8 μl) were suspended In low potassium “LK” buffer (containing 3 mM KCl). Test compounds in 8 μl LK were added to synaptosomes to final concentrations ranging from 0.3 μM to 100 μM, and the mixture was preincubated for 5 minutes at room temperature. ^45Ca uptake was then initiated by adding isotope in either LK or in buffer (“HK”) containing high [potassium] (150 mM KCl). After 5 seconds, the ^45Ca uptake was stopped by adding 0.9 ml quench buffer (LK+10 mM EGTA). This solution was then filtered under vacuum and the filters washed with 15 ml of quench buffer.
Washed filters were subjected to scintillation spectrophotometry to determine the extent of ^45Ca uptake. Net depolarization-induced ^45Ca uptake was determined for each concentration of each compound tested, as the difference between ^45Ca uptake in HK and LK buffers. Results were plotted as % inhibition of depolarization-induced ^45Ca uptake vs. [compound] for each compound tested. Representative IC50 for inhibition of depolarization-induced ^45Ca uptake are presented below in the tables (2a-2d) below which together are identified as Table 2.

[5] = molecular target: Type II neuronal voltage-activated sodium channels (Rattus norvegicus, UniProt P04775); assay: cell-based
Type II neuronal voltage-activated sodium channels, sequence (P04775 whole entry): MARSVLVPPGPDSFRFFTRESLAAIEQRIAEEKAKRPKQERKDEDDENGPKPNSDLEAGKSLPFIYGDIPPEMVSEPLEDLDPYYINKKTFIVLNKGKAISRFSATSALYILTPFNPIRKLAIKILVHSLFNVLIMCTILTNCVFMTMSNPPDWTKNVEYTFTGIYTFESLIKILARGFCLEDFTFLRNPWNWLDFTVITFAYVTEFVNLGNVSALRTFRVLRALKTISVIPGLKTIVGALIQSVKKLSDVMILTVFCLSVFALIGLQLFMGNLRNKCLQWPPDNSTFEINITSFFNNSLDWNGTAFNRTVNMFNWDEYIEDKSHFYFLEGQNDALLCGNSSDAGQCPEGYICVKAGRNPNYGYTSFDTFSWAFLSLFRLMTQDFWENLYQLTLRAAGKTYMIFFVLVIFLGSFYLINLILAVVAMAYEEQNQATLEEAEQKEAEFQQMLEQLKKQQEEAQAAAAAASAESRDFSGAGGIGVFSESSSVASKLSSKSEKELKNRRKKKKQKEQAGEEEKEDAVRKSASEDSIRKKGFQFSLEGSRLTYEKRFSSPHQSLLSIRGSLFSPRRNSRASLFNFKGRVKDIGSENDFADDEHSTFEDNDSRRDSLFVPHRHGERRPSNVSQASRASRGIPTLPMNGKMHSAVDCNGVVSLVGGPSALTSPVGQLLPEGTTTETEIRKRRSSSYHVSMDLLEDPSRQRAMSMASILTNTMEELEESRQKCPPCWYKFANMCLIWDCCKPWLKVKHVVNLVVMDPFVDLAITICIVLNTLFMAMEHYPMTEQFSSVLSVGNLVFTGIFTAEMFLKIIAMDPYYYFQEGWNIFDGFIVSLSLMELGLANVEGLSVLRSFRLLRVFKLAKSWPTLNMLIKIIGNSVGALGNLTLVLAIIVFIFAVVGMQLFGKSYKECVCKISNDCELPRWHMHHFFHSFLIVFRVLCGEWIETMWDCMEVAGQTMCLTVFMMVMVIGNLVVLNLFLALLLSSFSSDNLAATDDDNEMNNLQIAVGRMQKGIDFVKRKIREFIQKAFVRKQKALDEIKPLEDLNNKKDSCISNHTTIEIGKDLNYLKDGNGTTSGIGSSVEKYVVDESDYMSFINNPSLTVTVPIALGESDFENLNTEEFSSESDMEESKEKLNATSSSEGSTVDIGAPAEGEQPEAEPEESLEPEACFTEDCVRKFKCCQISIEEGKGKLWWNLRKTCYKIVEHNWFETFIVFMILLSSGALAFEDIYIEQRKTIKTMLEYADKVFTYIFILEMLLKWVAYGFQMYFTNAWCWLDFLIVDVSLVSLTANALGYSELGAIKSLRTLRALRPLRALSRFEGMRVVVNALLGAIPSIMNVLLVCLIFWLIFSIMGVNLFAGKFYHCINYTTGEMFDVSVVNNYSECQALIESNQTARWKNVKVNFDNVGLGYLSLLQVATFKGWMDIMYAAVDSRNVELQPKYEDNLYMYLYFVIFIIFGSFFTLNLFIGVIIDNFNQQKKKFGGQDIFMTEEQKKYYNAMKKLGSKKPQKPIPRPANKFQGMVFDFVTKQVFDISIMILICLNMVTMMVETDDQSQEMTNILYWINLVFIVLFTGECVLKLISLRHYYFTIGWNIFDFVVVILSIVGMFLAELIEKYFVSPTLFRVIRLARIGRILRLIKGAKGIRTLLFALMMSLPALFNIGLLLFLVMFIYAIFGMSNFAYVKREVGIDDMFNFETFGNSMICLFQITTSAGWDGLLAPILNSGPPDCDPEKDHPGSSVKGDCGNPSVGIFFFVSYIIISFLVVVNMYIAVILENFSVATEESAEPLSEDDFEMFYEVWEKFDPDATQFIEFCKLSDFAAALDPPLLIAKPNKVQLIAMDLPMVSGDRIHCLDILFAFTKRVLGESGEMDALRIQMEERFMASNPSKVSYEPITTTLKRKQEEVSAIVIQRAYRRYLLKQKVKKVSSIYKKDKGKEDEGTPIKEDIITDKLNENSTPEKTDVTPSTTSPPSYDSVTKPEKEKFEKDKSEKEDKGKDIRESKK

[6] = 3 μM compound, 50 μM veratridine-induced release, rat brain synaptosomes
[7] = high K+ depolarization-induced 45Ca uptake, read-out: IC50, block of ^45Ca uptake
[8] = veratridine (100 μM)-induced, tetrodotoxin-sensitive uptake, CHO cells expressing rat brain Type II Na channels, read-out: IC50, block of ^14C guanidinium uptake
[9] = 50 μM veratridine-induced release, rat brain synaptosomes

SMILES: CC(C)c1ccc(CN(C(=N)N)c2ccc3c4c(cccc24)CC3)cc1 [Example 19, N-(5-Acenaphthyl)-N-(4-isopropylbenzyl)guanidine]
- % Inhibition of ^3H-Glu Rel @ 3 μM (*veratridine-induced glutamate release assay) [1, 6]: 81* %
- melting point: 153 to 155 °C
- IC50 [2, 7]: 2.1 µM

SMILES: CCC(C)c1ccc(N(Cc2ccc(C(C)(C)C)cc2)C(=N)N)cc1 (centres unmarked) (as salt: HCl) [Example 1, N-(4-sec-Butylphenyl)-N-(4-tert-butylbenzyl)guanidine.HCl]
- melting point: 177 to 178 °C

SMILES: N=C(Nc1ccc2c3c(cccc13)CC2)NC(c1ccccc1)c1ccccc1 [Example 3, N-(5-Acenaphthyl)-N′-benzhydrylguanidine.HCl]
- % Inhibition of ^3H-Glu Rel @ 3 μM [3]: 53%
- IC50 [2, 7]: 2.7 µM

SMILES: N=C(Nc1ccc2c3c(cccc13)CC2)NC(c1ccccc1)c1ccccc1 (as salt: HCl) [Example 3, N-(5-Acenaphthyl)-N′-benzhydrylguanidine.HCl]
- melting point: 225 to 227 °C

SMILES: CC(C)(C)c1ccc(CN(C(=N)N)c2cccc(I)c2)cc1 (as salt: HCl) [Example 48, N-(3-Iodophenyl)-N-(4-tert-butylbenzyl)guanidine.HCl]
- melting point: 271 to 272 °C

SMILES: CCC(C)c1ccc(N(C)C(=N)N(C)c2ccc(C(C)CC)cc2)cc1 (centres unmarked) (as salt: HCl) [Example 6]
- melting point: 65 to 66 °C

SMILES: CCC(C)c1ccc(NC(=N)Nc2ccc(C(C)CC)cc2)cc1 (centres unmarked) (as salt: HCl) [Example 4, N,N′-bis(4-sec-Butylphenyl)guanidine.HCl]
- melting point: 113 to 115 °C

SMILES: CCC(C)c1ccc(N2CCCN(c3ccc(C(C)CC)cc3)C2=N)cc1 (centres unmarked) (as salt: HBr) [Example 8, N,N′-Bis-(4-sec-butylphenyl)-2-iminopyrimidazolidine.HBr]
- melting point: > 250 °C

SMILES: CC(C)(C)c1ccc(CN(C(=N)N)c2ccc3c4c(cccc24)CC3)cc1 [Example 2]
- IC50 [4]: 8.1 µM
- % Inhibition of ^3H-Glu Rel @ 1 μM [3]: 52%
- % Inhibition of ^3H-Glu Rel @ 3 μM [3]: 61%
- IC50 [2, 7]: 2.1 µM
- IC50 [5, 8]: 1 µM

SMILES: CC(C)(C)c1ccc(CN(C(=N)N)c2ccc(Cl)c3ccccc23)cc1 (as salt: HCl) [Example 49, N-(4-Chloro-1-naphthyl)-N-(4-tert-benzyl)guanidine.HCl]
- melting point: 115 to 117 °C

SMILES: CCC(C)c1ccc(N(Cc2ccccc2)C(=N)N)cc1 (centres unmarked) [Example 17, N-(4-sec-Butylphenyl)-N-benzylguanidine]
- melting point: 65 to 67 °C

SMILES: CCC(C)c1ccc(N(C)C(=N)N(C)c2ccc(C(C)CC)cc2)cc1 (centres unmarked) [Example 6]
- IC50 [4]: 5.9 µM
- % Inhibition of ^3H-Glu Rel @ 1 μM [3]: 71%
- % Inhibition of ^3H-Glu Rel @ 3 μM [3]: 92%
- IC50 [2, 7]: 4.3 µM
- IC50 [5]: 0.6 µM

SMILES: Br.N=C(Nc1ccc2c3c(cccc13)-c1ccccc1-2)Nc1ccc2c3c(cccc13)-c1ccccc1-2 [Example 9, N-N′-Bis(3-fluoroanthenyl)guanidine hydrobromide]
- % Inhibition of ^3H-Glu Rel @ 3 μM (*veratridine-induced glutamate release assay) [1]: 17* %
- IC50 [4]: 7.8 µM
- IC50 [5, 8]: 0.7 µM

SMILES: CC(CNC(=N)Nc1ccc2c3c(cccc13)CC2)c1ccccc1.Cl (centres unmarked) [Example 44, N-(5-Acenaphthyl)-N′-(2-methyl-2-phenylethyl)guanidine.HCl]
- % Inhibition of ^3H-Glu Rel @ 1 μM (*veratridine-induced glutamate release assay) [1, 9]: 43* %
- % Inhibition of ^3H-Glu Rel @ 3 μM (*veratridine-induced glutamate release assay) [1, 6]: 71* %

SMILES: CC(C)(C)c1ccc(CN(C(=N)N)c2ccc(Cl)c3ccccc23)cc1 [Example 49, N-(4-Chloro-1-naphthyl)-N-(4-tert-benzyl)guanidine.HCl]
- % Inhibition of ^3H-Glu Rel @ 1 μM (*veratridine-induced glutamate release assay) [1, 9]: 32* %
- IC50 [5]: 2.2 µM

SMILES: Cl.N=C(NCCCc1ccccc1)Nc1ccc2c3c(cccc13)CC2 [Example 43, N-(5-Acenaphthyl)-N′-(3-phenylpropyl)guanidine.HCl]
- % Inhibition of ^3H-Glu Rel @ 1 μM (*veratridine-induced glutamate release assay) [1, 9]: 43* %
- % Inhibition of ^3H-Glu Rel @ 3 μM [3]: 60%

SMILES: CC(C)(C)c1ccc(CN(C(=N)N)c2cccc(I)c2)cc1 [Example 48, N-(3-Iodophenyl)-N-(4-tert-butylbenzyl)guanidine.HCl]
- % Inhibition of ^3H-Glu Rel @ 1 μM (*veratridine-induced glutamate release assay) [1, 9]: 23* %
- IC50 [5]: 0.4 µM

SMILES: N=C(N=Cc1cccc2ccccc12)Nc1ccc2c3c(cccc13)CC2 [Example 10, N-(5-Acenaphthyl)-N′-[(1-naphthyl)-methylene]guanidine.CH3SO3H]
- % Inhibition of ^3H-Glu Rel @ 1 μM (*veratridine-induced glutamate release assay) [1, 9]: 24* %
- % Inhibition of ^3H-Glu Rel @ 3 μM (*veratridine-induced glutamate release assay) [1, 6]: 71* %

SMILES: CCC(C)c1ccc(N(C/C=C/c2ccccc2)C(=N)N)cc1.Cl (stereo not drawn) [Example 23, N-(4-sec-Butylphenyl)-N-(trans-cinnamyl)guanidine.HCl]
- % Inhibition of ^3H-Glu Rel @ 3 μM (*veratridine-induced glutamate release assay) [1, 6]: 33* %

SMILES: CCCCOc1ccc(N(Cc2ccc(C(C)(C)C)cc2)C(=N)N)cc1.Cl [Example 24, N-(4-n-Butoxyphenyl)-N-(4-tert-butylbenzyl)guanidine.HCl]
- % Inhibition of ^3H-Glu Rel @ 1 μM (*veratridine-induced glutamate release assay) [1, 9]: 62* %
- IC50 [5, 8]: 1.8 µM

SMILES: COc1ccc(NC(=N)Nc2ccc(Cl)c(Cl)c2Cl)c2ccccc12.Cl [Example 15, N-(4-Methoxy-1-naphthyl)-N′-(2,3,4-trichlorophenyl)guanidine.HCl]
- IC50 [4]: 1.7 µM
- % Inhibition of ^3H-Glu Rel @ 3 μM [3]: 88%
- IC50 [2, 7]: 1.7 µM

SMILES: Cl.N=C(Nc1ccc(OCc2ccccc2)cc1)Nc1cccc(OCc2ccccc2)c1 [Example 42, N-(3-Benzyloxyphenyl)-N′-(4-benzyloxyphenyl)guanidine.HCl]
- % Inhibition of ^3H-Glu Rel @ 3 μM (*veratridine-induced glutamate release assay) [1, 6]: 60* %
- % Inhibition of ^3H-Glu Rel @ 0.3 μM ([3]; 0.3 μM compound): 54%
- % Inhibition of ^3H-Glu Rel @ 1 μM [3]: 90%
- IC50 [5, 8]: 0.7 µM

SMILES: COc1ccc([C@@H]2Sc3ccccc3N(CCN(C)C)C(=O)[C@@H]2OC(C)=O)cc1 [diltiazem, reference compound]
- IC50 ([2]; read-out: IC50, block of ^45Ca uptake, high K+ depolarization-induced 45Ca uptake): 19.7 µM
